Measured values published in patent publication US20260317320A1, “C5AR1 ANTAGONISTS AND USES THEREOF” (Vanqua Bio, Inc., priority 2022, published 2026).
Read-outs that look alike come from different tables or passages of the source.

Assays:
[1] = target: T1, complement C5a receptor 1 (C5aR1) (Homo sapiens, UniProt P21730); experiment: β-arrestin recruitment via C5aR1 activation in live CHO-K1 cells (PathHunter), agonist mode; format: cell-based
T1 construct: β-galactosidase fragment (PathHunter enzyme complementation); host or cells: CHO-K1 (PathHunter CHO-K1 C5aR1 β-arrestin cell line)
T1 sequence (P21730 1-350): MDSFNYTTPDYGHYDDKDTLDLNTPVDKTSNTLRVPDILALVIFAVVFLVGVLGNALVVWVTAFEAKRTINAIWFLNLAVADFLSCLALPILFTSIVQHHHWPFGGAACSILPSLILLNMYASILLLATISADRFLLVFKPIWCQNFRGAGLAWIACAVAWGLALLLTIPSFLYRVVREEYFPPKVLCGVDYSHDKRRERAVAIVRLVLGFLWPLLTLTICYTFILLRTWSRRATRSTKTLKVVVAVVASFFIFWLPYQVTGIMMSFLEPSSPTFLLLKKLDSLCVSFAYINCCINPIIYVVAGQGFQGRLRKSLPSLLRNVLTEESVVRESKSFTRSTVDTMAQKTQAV
How it was run: (§1)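 Live CHO-K1 cells carry two galactosidase enzyme fragments, one fused to β-arrestin and one to C5aR1, so that β-arrestin recruitment restores enzyme activity. Agonist mode tests compounds alone. Antagonist mode tests them against recombinant hC5a at EC90, and IC50 values are reported in binned ranges.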

[2] = target: T1, complement C5a receptor 1 (C5aR1); experiment: β-arrestin recruitment via C5aR1 activation in live CHO-K1 cells (PathHunter), antagonist mode; format: cell-based; conditions: antagonist mode; recombinant hC5a (EC90) as competing natural agonist; live CHO-K1 cells; read-out: [Antagonist] B-arrestin2 recruitment: Average IC50
How it was run: as §1

Row | [Agonist] B-arrestin2 recruitment: Average EC50 (nM) [1] | IC50 [2] [nM] | [Agonist] B-arrestin2 recruitment: Average EC50 (nM) ([1]; at 10 μM) | Compound
1 | Non-Active | < 500 |  | Cc1cnc2cc(C3CCN(c4c(C)ccnc4F)CC3)c(=O)n(Cc3ncccc3C(F)(F)F)c2n1 [compound 133, 7-(1-(2-Fluoro-4-methylpyridin-3-yl)piperidin-4-yl)-3-methyl-5-((3-(trifluoromethyl)pyridin-2-yl)methyl)pyrido[2,3-b]pyrazin-6(5H)-one]
2 | Non-Active | 5000 to 100000 |  | Cc1cnc2cc(C3CCN(c4c(C)cccc4F)CC3)c(=O)n([C@@H]3CCC(F)(F)c4nccnc43)c2n1 [149A, (R)-5-(8,8-Difluoro-5,6,7,8-tetrahydroquinoxalin-5-yl)-7-(1-(2-fluoro-6-methylphenyl)piperidin-4-yl)-3-methylpyrido[2,3-b]pyrazin-6(5H)-one]
3 | Non-Active | < 500 |  | Cc1cnc2cc(C3CCN(c4c(C)cccc4F)CC3)c(=O)n(Cc3nccnc3C(F)(F)F)c2n1 [compound 25, 7-(1-(2-Fluoro-6-methylphenyl)piperidin-4-yl)-3-methyl-5-((3-(trifluoromethyl)pyrazin-2-yl)methyl)pyrido[2,3-b]pyrazin-6(5H)-one]
4 | Non-Active | 500 to 5000 |  | Cc1cccc(F)c1N1CCC(c2cc3nccnc3n(Cc3nccnc3C(F)(F)F)c2=O)C1 (centres unmarked) [compound 23, 7-(1-(2-Fluoro-6-methylphenyl)pyrrolidin-3-yl)-5-((3-(trifluoromethyl)pyrazin-2-yl)methyl) pyrido[2,3-b]pyrazin-6(5H)-one]
5 | Non-Active | 500 to 5000 |  | CCOc1ncc2cc(C3CCN(c4c(C)cccc4F)CC3)c(=O)n(Cc3nccnc3C(F)(F)F)c2n1 [compound 51, 2-Ethoxy-6-(1-(2-fluoro-6-methylphenyl)piperidin-4-yl)-8-((3-(trifluoromethyl)pyrazin-2-yl)methyl)pyrido[2,3-d]pyrimidin-7(8H)-one]
6 | Non-Active | 500 to 5000 |  | Cc1cnc2c(C)c(C3CCN(c4c(C)cccc4F)CC3)c(=O)n(Cc3nccnc3C(F)(F)F)c2n1 [compound 73, 7-(1-(2-Fluoro-6-methylphenyl)piperidin-4-yl)-3,8-dimethyl-5-((3-(trifluoromethyl)pyrazin-2-yl)methyl)pyrido[2,3-b]pyrazin-6(5H)-one]
7 |  | 500 to 5000 | Non-Active at 10 μM | Cc1cnc2cc(C3CCN(c4nccnc4C)CC3)c(=O)n(Cc3ncccc3OC(F)(F)F)c2n1 [compound 153, 3-Methyl-7-(1-(3-methylpyrazin-2-yl)piperidin-4-yl)-5-((3-(trifluoromethoxy)pyridin-2-yl)methyl)pyrido[2,3-b]pyrazin-6(5H)-one]
8 | Non-Active | < 500 |  | Cc1ccnc(F)c1N1CCC(c2cc3nccnc3n(Cc3nccnc3C(F)(F)F)c2=O)CC1 [compound 129, 7-(1-(2-Fluoro-4-methylpyridin-3-yl)piperidin-4-yl)-5-((3-(trifluoromethyl)pyrazin-2-yl)methyl)pyrido[2,3-b]pyrazin-6(5H)-one]

Continued, molecule first:

Row | Compound | [Agonist] B-arrestin2 recruitment: Average EC50 (nM) [1] | IC50 [2] [nM] | [Agonist] B-arrestin2 recruitment: Average EC50 (nM) ([1]; at 10 μM)
9 | Cc1cnc2cc(C3CCN(c4cnccc4C(F)F)CC3)c(=O)n(Cc3ncccc3C(F)(F)F)c2n1 [compound 162, 7-(1-(4-(Difluoromethyl)pyridin-3-yl)piperidin-4-yl)-3-methyl-5-((3-(trifluoromethyl)pyridin-2-yl)methyl)pyrido[2,3-b]pyrazin-6(5H)-one] | Non-Active | < 500 | 
10 | Cc1cnc2cc([C@@H]3CC[C@@H](c4c(C)cccc4F)C3)c(=O)n(Cc3nccnc3C)c2n1 [172D, 7-((1R,3R)-3-(2-Fluoro-6-methylphenyl)cyclopentyl)-3-methyl-5-((3-methylpyrazin-2-yl)methyl)pyrido[2,3-b]pyrazin-6(5H)-one] |  | 5000 to 100000 | Non-Active at 10 μM
11 | Cc1cnc2c(=O)n(C3CCN(c4c(C)cccc4F)CC3)c(=O)n(Cc3ncccc3C(F)(F)F)c2n1 [compound 50, 3-(1-(2-Fluoro-6-methylphenyl)piperidin-4-yl)-7-methyl-1-((3-(trifluoromethyl)pyridin-2-yl)methyl)pteridine-2,4(1H,3H)-dione] | Non-Active | 500 to 5000 | 
12 | Cc1cnc2cc(C3CCN(c4nncs4)CC3)c(=O)n(Cc3ncccc3C(F)(F)F)c2n1 [compound 132, 7-(1-(1,3,4-Thiadiazol-2-yl)piperidin-4-yl)-3-methyl-5-((3-(trifluoromethyl)pyridin-2-yl)methyl)pyrido[2,3-b]pyrazin-6(5H)-one] | Non-Active | > 100000 | 
13 | Cc1ccc2cc([C@H]3CC[C@H](c4c(F)cccc4F)CC3)c(=O)n(Cc3ncccc3C3CC3)c2n1 [compound 245, 1-((3-Cyclopropylpyridin-2-yl)methyl)-3-((1r,4r)-4-(2,6-difluorophenyl)cyclohexyl)-7-methyl-1,8-naphthyridin-2(1H)-one] |  | < 500 | Non-Active at 10 μM
14 | Cc1cccc(F)c1[C@H]1CC[C@H](c2cc3ncc(C(F)F)nc3n(Cc3ncccc3C(F)(F)F)c2=O)CC1 [compound 240, 3-(Difluoromethyl)-7-((1r,4r)-4-(2-fluoro-6-methylphenyl)cyclohexyl)-5-((3-(trifluoromethyl)pyridin-2-yl)methyl)pyrido[2,3-b]pyrazin-6(5H)-one] | Non-Active | < 500 | 
15 | Cc1cnc2cc([C@H]3CC[C@H](c4nn(C)c5ccccc54)CC3)c(=O)n(Cc3ncccc3C(F)(F)F)c2n1 [compound 191, 3-Methyl-7-((1r,4r)-4-(1-methyl-1H-indazol-3-yl)cyclohexyl)-5-((3-(trifluoromethyl)pyridin-2-yl)methyl)pyrido[2,3-b]pyrazin-6(5H)-one] |  | 5000 to 100000 | Non-Active at 10 μM
16 | Cc1cccc(F)c1N1CCC(n2c(=O)c3ccccc3n(Cc3ncccc3C(F)(F)F)c2=O)CC1 [compound 36, 3-(1-(2-Fluoro-6-methylphenyl)piperidin-4-yl)-1-((3-(trifluoromethyl)pyridin-2-yl)methyl)quinazoline-2,4(1H,3H)-dione] | Non-Active | 500 to 5000 | 
17 | Cc1ccc2cc([C@H]3CC[C@H](c4c(C)cccc4F)CC3)c(=O)n(Cc3ccccc3C(F)(F)F)c2n1 [compound 225, 3-((1r,4r)-4-(2-Fluoro-6-methylphenyl)cyclohexyl)-7-methyl-1-(2-(trifluoromethyl)benzyl)-1,8-naphthyridin-2(1H)-one] |  | < 500 | Non-Active at 10 μM
18 | Cc1cnc2cc(C3CCCCC3)c(=O)n(Cc3ncccc3C(F)(F)F)c2n1 [compound 265, 7-Cyclohexyl-3-methyl-5-{[3-(trifluoromethyl)-2-pyridyl]methyl}-1,4,5-triaza-6(5H)-naphthalenone] | Non-Active | 500 to 5000 | 
19 | Cc1cnc2cc([C@H]3CC[C@H](c4scnc4C)CC3)c(=O)n(Cc3ncccc3C(F)(F)F)c2n1 [compound 164, 3-Methyl-7-((1r,4r)-4-(4-methylthiazol-5-yl)cyclohexyl)-5-((3-(trifluoromethyl)pyridin-2-yl)methyl)pyrido[2,3-b]pyrazin-6(5H)-one] |  | 500 to 5000 | Non-Active at 10 μM
